Measured values taken from patent US9238802B2, “E. coli transformant, method for producing flavin-bound glucose dehydrogenase using the same, and mutant flavin-bound glucose dehydrogenases” (KIKKOMAN CORPORATION, priority 2010, dated 2016).

Experiments:
[1] = system: flavin-bound GDHs of the invention; assay: Inhibitory effects of 1,10-phenanthroline, summary; format: biochemical, Mucor
Description: (§1) The inhibitory effects of 1,10-phenanthroline on the activities of these flavin-bound GDHs were examined by the following method. According to the enzyme activity assay of Example 1, the enzyme activities when 1,10-phenanthroline was added at final concentrations of 1, 5, 10, 25, and 50 mM were determined to calculate the inhibitory rates relative to 0% of the inhibitory rate when no 1,10-phenanthroline was added.

McGDH = assay: Inhibitory effects of 1,10-phenanthroline on GDH activity; format: biochemical, Mucor circinelloides f. circinelloides NISL0117
Description: as §1

MjGDH = assay: as above; format: biochemical, Mucor javanicus NISL0111
Description: as §1

MpGDH = assay: as above; format: biochemical, Mucor prainii NISL0103
Description: as §1

Compound: c1cnc2c(c1)ccc1cccnc12 [1,10-phenanthroline]
- inhibitory effects ([1]; 1,10-phenanthroline 1 mM): 2-4%
- inhibitory effects ([1]; 1,10-phenanthroline 5 mM): about 10%
- GDH inhibition rate (McGDH; 1,10-phenanthroline 1 mM): 1.95%
- GDH inhibition rate (McGDH; 1,10-phenanthroline 5 mM): 8.23%
- GDH inhibition rate (McGDH; 1,10-phenanthroline 10 mM): 12.8%
- GDH inhibition rate (McGDH; 1,10-phenanthroline 25 mM): 36.2%
- GDH inhibition rate (McGDH; 1,10-phenanthroline 50 mM): 68.5%
- GDH inhibition rate (MjGDH; 1,10-phenanthroline 1 mM): 3.27%
- GDH inhibition rate (MjGDH; 1,10-phenanthroline 5 mM): 13.1%
- GDH inhibition rate (MjGDH; 1,10-phenanthroline 10 mM): 23.5%
- GDH inhibition rate (MjGDH; 1,10-phenanthroline 25 mM): 64.7%
- GDH inhibition rate (MjGDH; 1,10-phenanthroline 50 mM): 88.9%
- GDH inhibition rate (MpGDH; 1,10-phenanthroline 1 mM): 3.72%
- GDH inhibition rate (MpGDH; 1,10-phenanthroline 5 mM): 10.1%
- GDH inhibition rate (MpGDH; 1,10-phenanthroline 10 mM): 23.9%
- GDH inhibition rate (MpGDH; 1,10-phenanthroline 25 mM): 44.1%
- GDH inhibition rate (MpGDH; 1,10-phenanthroline 50 mM): 68.6%
